{"source": "paper PMC8213057", "about": "“Targeting ALK2: An Open Science Approach to Developing Therapeutics for the Treatment of Diffuse Intrinsic Pontine Glioma” (Journal of Medicinal Chemistry, 2020)", "key": {"TNIK": {"target": "T1, TNIK (Homo sapiens, UniProt Q9UKE5)", "T1 construct": "purchased Reaction Biology Corporation", "T1 sequence (Q9UKE5 whole entry)": "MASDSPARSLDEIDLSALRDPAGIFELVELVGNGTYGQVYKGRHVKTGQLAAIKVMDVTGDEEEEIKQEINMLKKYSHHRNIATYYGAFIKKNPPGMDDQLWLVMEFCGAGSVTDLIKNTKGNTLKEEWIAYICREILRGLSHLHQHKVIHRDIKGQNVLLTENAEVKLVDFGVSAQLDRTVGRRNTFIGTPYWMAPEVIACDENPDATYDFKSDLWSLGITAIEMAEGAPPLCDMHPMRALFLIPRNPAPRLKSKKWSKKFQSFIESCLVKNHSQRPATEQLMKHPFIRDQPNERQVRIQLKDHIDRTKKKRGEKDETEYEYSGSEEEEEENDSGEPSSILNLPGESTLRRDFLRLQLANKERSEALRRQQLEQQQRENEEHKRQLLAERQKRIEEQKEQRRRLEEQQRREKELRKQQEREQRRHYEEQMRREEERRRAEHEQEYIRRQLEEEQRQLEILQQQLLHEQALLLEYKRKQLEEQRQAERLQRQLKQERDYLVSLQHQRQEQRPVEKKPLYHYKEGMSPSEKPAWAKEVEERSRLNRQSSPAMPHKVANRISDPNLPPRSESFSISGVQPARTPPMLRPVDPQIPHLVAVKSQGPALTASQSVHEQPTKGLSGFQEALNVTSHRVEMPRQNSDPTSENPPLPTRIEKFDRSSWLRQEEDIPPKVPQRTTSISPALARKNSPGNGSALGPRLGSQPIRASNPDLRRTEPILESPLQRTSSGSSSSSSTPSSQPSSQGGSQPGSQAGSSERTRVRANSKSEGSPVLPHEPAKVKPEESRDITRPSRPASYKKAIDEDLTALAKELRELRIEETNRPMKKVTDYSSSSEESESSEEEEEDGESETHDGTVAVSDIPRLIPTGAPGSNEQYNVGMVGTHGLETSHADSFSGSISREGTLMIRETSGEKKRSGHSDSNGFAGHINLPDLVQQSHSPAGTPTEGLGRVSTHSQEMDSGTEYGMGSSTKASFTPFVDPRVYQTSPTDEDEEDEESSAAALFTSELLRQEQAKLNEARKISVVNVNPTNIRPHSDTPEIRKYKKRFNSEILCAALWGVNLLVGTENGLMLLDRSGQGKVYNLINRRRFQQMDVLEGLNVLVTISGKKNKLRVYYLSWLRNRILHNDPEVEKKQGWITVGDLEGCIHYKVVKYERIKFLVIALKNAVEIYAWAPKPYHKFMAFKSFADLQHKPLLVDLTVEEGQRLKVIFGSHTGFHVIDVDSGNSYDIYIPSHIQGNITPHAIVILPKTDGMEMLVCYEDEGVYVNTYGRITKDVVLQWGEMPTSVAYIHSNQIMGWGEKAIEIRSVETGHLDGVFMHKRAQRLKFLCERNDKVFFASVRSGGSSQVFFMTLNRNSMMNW", "experiment": "375-member kinase panel", "assay_type": "biochemical", "details": "Run 1, Run 2; for % enzyme activity: 1 μM"}, "CDK1/cyclin A": {"target": "CDK1/cyclin A (Homo sapiens, UniProt P06493)", "sequence (P20248 whole entry)": "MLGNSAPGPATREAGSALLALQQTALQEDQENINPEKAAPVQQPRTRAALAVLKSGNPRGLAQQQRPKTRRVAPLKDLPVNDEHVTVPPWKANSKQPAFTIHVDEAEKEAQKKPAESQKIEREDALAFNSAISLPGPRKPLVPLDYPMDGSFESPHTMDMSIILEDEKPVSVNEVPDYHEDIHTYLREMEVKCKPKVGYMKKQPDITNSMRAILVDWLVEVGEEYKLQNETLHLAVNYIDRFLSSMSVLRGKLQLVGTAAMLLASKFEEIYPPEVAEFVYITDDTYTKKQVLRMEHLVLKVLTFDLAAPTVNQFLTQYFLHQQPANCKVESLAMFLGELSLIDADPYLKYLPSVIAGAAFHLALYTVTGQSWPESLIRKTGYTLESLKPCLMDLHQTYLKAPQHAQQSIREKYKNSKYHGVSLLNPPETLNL", "sequence (P06493 whole entry)": "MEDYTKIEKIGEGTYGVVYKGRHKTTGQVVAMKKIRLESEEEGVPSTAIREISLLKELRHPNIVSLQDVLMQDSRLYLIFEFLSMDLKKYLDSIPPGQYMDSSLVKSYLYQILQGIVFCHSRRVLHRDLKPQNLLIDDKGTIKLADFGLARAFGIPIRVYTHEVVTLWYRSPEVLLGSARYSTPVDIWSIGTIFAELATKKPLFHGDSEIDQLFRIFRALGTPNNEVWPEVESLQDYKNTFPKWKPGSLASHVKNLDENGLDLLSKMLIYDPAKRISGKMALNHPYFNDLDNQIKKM", "details": "1 μM; Run 1, Run 2"}, "MEK3": {"target": "T2, MEK3 (Homo sapiens, UniProt P46734)", "T2 sequence (P46734 1-347)": "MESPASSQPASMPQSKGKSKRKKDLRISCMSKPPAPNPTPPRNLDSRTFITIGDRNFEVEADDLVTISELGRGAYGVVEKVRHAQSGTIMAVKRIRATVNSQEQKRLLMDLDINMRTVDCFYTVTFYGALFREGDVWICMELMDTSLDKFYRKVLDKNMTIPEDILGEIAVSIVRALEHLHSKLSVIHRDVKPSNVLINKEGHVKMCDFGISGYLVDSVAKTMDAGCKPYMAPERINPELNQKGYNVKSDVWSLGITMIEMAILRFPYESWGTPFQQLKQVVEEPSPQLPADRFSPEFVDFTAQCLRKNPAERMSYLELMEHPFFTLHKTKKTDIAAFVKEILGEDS", "details": "1 μM; Run 1, Run 2"}, "WNK2": {"target": "WNK2 (Homo sapiens, UniProt Q9Y3S1)", "details": "1 μM; Run 1, Run 2"}, "CAMKK2": {"target": "CAMKK2 (Homo sapiens, UniProt Q96RR4)", "sequence (Q96RR4 whole entry)": "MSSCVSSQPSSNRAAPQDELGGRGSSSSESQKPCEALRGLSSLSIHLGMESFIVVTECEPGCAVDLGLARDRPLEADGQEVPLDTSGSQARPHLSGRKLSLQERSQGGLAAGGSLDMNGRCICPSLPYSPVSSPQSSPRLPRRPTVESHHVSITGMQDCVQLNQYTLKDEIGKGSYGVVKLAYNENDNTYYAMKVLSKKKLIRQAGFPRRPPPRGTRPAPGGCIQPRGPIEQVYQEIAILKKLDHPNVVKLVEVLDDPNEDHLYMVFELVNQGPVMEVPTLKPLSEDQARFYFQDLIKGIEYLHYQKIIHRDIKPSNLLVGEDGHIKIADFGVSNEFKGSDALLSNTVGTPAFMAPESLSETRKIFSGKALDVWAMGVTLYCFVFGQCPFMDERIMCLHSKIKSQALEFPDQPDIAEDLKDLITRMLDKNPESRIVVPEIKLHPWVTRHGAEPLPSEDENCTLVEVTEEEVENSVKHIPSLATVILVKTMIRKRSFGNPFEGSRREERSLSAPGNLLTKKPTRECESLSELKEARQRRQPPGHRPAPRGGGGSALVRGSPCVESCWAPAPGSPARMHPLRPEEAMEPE", "experiment": "biochemical", "details": "read-out: % enzyme activity, 1 μM; Run 1, Run 2"}, "CDK2/cyclin A": {"target": "CDK2/cyclin A (Homo sapiens, UniProt P24941)", "experiment": "biochemical", "details": "read-out: % enzyme activity, 1 μM; Run 1, Run 2"}, "HIPK4": {"target": "T3, HIPK4 (Homo sapiens, UniProt Q8NE63)", "T3 sequence (Q8NE63 1-616)": "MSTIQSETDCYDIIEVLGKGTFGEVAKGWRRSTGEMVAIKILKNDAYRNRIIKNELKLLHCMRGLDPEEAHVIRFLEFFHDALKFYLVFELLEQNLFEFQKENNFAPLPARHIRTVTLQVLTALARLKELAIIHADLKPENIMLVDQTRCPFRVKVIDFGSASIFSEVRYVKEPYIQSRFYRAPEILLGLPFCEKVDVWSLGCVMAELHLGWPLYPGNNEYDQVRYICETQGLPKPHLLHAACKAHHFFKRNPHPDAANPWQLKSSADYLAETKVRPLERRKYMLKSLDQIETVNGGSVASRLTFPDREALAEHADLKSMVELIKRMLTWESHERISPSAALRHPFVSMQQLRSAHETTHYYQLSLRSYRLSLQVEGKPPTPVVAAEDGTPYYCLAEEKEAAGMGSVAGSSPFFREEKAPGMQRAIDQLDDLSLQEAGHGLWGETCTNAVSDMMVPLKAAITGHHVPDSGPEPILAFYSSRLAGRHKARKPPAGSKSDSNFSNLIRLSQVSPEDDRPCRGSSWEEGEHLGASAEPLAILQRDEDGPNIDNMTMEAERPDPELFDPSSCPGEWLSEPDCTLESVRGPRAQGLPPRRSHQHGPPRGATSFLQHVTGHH", "experiment": "biochemical", "details": "read-out: % enzyme activity, 1 μM; Run 1, Run 2"}, "MEK5": {"target": "T4, MEK5 (Homo sapiens, UniProt Q13163)", "T4 sequence (Q13163 1-448)": "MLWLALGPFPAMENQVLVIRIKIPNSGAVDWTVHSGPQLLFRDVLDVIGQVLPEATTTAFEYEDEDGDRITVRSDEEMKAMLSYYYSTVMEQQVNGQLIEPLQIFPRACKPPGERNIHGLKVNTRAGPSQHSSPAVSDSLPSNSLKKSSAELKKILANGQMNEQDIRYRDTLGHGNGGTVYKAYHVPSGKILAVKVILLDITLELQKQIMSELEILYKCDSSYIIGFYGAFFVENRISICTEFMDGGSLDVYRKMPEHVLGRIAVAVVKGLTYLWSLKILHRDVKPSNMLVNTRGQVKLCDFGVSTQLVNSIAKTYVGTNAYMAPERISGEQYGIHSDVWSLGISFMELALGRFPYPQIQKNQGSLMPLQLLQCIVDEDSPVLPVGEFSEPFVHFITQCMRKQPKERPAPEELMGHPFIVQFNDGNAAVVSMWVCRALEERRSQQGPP", "experiment": "biochemical", "details": "read-out: % enzyme activity, 1 μM; Run 1, Run 2"}, "PLK3": {"target": "PLK3 (Homo sapiens, UniProt Q9H4B4)", "sequence (Q9H4B4 whole entry)": "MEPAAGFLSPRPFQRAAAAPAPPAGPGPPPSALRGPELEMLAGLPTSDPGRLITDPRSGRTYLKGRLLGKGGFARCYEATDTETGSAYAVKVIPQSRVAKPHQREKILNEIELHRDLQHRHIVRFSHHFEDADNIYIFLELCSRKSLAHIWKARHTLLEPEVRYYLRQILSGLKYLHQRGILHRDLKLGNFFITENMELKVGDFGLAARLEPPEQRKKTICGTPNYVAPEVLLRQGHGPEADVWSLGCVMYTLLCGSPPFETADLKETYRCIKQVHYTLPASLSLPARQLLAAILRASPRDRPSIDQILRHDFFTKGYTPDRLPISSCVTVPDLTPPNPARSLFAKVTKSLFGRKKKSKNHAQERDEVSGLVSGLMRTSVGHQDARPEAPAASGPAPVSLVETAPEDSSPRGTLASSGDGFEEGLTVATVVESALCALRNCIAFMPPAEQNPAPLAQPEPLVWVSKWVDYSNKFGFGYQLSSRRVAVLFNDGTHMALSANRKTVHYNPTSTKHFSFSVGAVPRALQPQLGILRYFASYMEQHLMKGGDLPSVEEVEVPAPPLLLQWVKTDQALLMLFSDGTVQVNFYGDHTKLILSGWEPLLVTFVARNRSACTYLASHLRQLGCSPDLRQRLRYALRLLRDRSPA", "experiment": "biochemical", "details": "read-out: % enzyme activity, 1 μM; Run 1, Run 2"}, "SNARK/NUAK2": {"target": "T5, SNARK/NUAK2 (Homo sapiens, UniProt Q9H093)", "T5 sequence (Q9H093 1-628)": "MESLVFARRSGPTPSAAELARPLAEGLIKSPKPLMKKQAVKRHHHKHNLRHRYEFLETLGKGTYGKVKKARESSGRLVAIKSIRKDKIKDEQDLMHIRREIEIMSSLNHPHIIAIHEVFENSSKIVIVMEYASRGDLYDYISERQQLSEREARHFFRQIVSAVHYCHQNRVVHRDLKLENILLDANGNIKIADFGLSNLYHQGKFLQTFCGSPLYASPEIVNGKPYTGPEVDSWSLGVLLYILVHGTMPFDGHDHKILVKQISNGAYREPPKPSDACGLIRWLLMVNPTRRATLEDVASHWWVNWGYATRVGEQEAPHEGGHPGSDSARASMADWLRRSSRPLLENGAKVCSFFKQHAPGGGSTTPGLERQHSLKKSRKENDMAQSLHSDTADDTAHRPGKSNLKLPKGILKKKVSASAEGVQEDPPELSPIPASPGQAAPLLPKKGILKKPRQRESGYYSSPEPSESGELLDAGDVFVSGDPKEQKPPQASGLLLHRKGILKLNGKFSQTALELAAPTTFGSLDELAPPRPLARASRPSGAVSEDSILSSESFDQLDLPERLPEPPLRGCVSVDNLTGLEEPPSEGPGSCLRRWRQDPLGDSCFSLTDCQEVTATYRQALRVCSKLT", "experiment": "biochemical", "details": "read-out: % enzyme activity, 1 μM; Run 1, Run 2"}, "VRK1": {"target": "T6, VRK1 (Homo sapiens, UniProt Q99986)", "T6 sequence (Q99986 1-396)": "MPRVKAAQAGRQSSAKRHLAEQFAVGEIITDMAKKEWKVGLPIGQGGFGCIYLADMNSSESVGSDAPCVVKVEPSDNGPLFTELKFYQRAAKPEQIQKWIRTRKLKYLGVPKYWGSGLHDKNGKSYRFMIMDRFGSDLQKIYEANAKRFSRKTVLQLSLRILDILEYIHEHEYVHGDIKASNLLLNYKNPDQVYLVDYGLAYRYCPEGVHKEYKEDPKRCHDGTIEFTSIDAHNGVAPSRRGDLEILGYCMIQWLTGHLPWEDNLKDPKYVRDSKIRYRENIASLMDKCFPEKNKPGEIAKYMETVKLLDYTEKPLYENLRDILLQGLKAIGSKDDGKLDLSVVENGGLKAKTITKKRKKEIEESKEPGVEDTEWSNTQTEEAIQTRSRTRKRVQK", "experiment": "biochemical", "details": "read-out: % enzyme activity, 1 μM; Run 1, Run 2"}}, "note": "Several values for one entry are separate records, joined by “and”; a condition that tells them apart may be missing. Equal values may be shown once."}
{"smiles": "COc1cc(-c2cncc(-c3ccc(N4CCN(C)CC4)cc3)c2C)cc(F)c1C(N)=O", "note": "[Compound 26a, 2-Fluoro-6-methoxy-4-(4-methyl-5-(4-(4-methylpiperazin-1-yl)phenyl)pyridin-3-yl)benzamide]", "values": [{"measurement": "% enzyme activity", "setting": "TNIK", "result": "-0.77% and -2.62%"}, {"measurement": "% enzyme activity", "setting": "CDK1/cyclin A", "result": 92.50, "unit": "%"}, {"measurement": "% enzyme activity", "setting": "MEK3", "result": 100.94, "unit": "%"}, {"measurement": "% enzyme activity", "setting": "WNK2", "result": 95.09, "unit": "%"}, {"measurement": "remaining activity at 1 µM", "setting": "CAMKK2", "result": 71.7, "unit": "%"}, {"measurement": "remaining activity at 1 µM", "setting": "CDK2/cyclin A", "result": 100, "unit": "%"}, {"measurement": "remaining activity at 1 µM", "setting": "HIPK4", "result": 104, "unit": "%"}, {"measurement": "remaining activity at 1 µM", "setting": "MEK5", "result": 86.9, "unit": "%"}, {"measurement": "remaining activity at 1 µM", "setting": "PLK3", "result": 95, "unit": "%"}, {"measurement": "remaining activity at 1 µM", "setting": "SNARK/NUAK2", "result": 91.6, "unit": "%"}, {"measurement": "remaining activity at 1 µM", "setting": "VRK1", "result": 104, "unit": "%"}]}
{"smiles": "COc1cc(-c2cncc(-c3ccc(N4C[C@@H](C)N(C)[C@@H](C)C4)cc3)c2C)cc(F)c1C(N)=O", "note": "[Compound 26c, 2-Fluoro-6-methoxy-4-(4-methyl-5-(4-((3R,5S)-3,4,5-trimethylpiperazin-1-yl)phenyl)pyridin-3-yl)benzamide]", "values": [{"measurement": "% enzyme activity", "setting": "TNIK", "result": 3.92, "unit": "%"}, {"measurement": "remaining activity at 1 µM", "setting": "TNIK; read-out: % enzyme activity, 1 μM", "result": 4.85, "unit": "%"}, {"measurement": "% enzyme activity", "setting": "CDK1/cyclin A", "result": 89.52, "unit": "%"}, {"measurement": "% enzyme activity", "setting": "MEK3", "result": 101.33, "unit": "%"}, {"measurement": "% enzyme activity", "setting": "WNK2", "result": 93.64, "unit": "%"}, {"measurement": "remaining activity at 1 µM", "setting": "CAMKK2", "result": 76.4, "unit": "%"}, {"measurement": "remaining activity at 1 µM", "setting": "CDK2/cyclin A", "result": 100, "unit": "%"}, {"measurement": "remaining activity at 1 µM", "setting": "HIPK4", "result": 101, "unit": "%"}, {"measurement": "remaining activity at 1 µM", "setting": "MEK5", "result": 93.2, "unit": "%"}, {"measurement": "remaining activity at 1 µM", "setting": "PLK3", "result": 97.7, "unit": "%"}, {"measurement": "remaining activity at 1 µM", "setting": "SNARK/NUAK2", "result": 94, "unit": "%"}, {"measurement": "remaining activity at 1 µM", "setting": "VRK1", "result": 102, "unit": "%"}]}
